The values below are quoted from earlier work in patent US20240225064A1, “METHOD FOR MASS-PRODUCING SWEETENER HAVING TASTE QUALITY SIMILAR TO THAT OF SUGAR AND HAVING D-ALLULOSE FUNCTIONALITY” (NATIONAL UNIVERSITY CORPORATION KAGAWA UNIVERSITY, priority 2021, published 2024).

Where two headings read alike, the source gives them in different places.

Assay in data set [1]: not given
The source holds these as a separate data set.

The conditions of data set [2]: content in sweetener.

Take `O=C(CO)[C@H](O)[C@H](O)[C@H](O)CO` [D-allulose]: under “assuming that the sweetness degree of sugar is 100”, the “sweetness degree (sweetness intensity)” value is listed as 70. For the same compound, the “sweetness degree relative to sugar” value (of that of sugar) was “about 70%”. For the same compound, the “acute oral toxicity test” value in data set [1] is listed as ≥ 5,000 mg/kg. For the same compound, in data set [2], the “D-allulose content at which the function of suppressing rapid absorption of a saccharide appears” value is reported as no less than 5 mass %.

On to `O=C(CO)[C@@H](O)[C@H](O)[C@H](O)CO` [D-fructose], for which the “sweetness of D-fructose relative to sucrose” value is listed as “equal thereto” (at 40° C.) and 60% (at high temperatures).
